These results are taken from ChEMBL document CHEMBL1153973, “Regioisomerism-dependent TLR7 agonism and antagonism in an imidazoquinoline” (Bioorg Med Chem Lett, 2009).

As usually defined, the pIC50 is the IC50 on a negative log10 scale, so that one unit is a factor of ten. Low readings indicate a high IC50, high ones a low IC50.

Test [1] addresses T1, Toll-like receptor 7 (Homo sapiens, UniProt Q9NYK1).
T1 sequence (Q9NYK1 whole entry): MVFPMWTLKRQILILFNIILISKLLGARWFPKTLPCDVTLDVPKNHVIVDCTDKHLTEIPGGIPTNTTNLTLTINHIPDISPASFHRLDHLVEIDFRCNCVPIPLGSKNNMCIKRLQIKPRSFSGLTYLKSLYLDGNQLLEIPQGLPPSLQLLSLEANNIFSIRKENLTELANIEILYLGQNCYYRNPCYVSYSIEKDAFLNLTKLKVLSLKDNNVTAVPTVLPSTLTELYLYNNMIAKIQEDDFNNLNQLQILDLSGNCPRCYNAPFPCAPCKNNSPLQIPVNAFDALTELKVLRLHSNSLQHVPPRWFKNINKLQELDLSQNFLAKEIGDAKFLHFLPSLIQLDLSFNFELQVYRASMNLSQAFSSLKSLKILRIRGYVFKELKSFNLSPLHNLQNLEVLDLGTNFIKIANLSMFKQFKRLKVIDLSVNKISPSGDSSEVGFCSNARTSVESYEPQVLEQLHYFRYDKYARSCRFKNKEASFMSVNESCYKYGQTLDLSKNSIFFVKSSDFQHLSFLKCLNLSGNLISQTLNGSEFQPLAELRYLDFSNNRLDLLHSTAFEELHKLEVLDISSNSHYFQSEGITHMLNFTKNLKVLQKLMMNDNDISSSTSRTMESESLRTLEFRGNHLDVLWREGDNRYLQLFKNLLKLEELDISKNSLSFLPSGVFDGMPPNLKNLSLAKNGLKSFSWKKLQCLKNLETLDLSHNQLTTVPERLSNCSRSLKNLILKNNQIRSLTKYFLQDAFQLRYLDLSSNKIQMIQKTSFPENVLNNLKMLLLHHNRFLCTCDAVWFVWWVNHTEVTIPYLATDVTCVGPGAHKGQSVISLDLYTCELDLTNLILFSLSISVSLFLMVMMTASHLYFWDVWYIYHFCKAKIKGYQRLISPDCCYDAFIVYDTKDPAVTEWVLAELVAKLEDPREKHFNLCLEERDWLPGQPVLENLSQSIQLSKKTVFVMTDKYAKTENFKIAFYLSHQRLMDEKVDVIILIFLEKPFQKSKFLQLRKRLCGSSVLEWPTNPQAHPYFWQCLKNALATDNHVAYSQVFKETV

The target in test [2] is T1, Toll-like receptor 7. Briefly: Agonist activity at TLR7 expressed in HEK293 cells assessed as increase in NF-kappaB activation at 25 ug/mL by SEAP assay. The format is functional, cell-based.

pIC50: −log10 of the molar value.

As to `CCNCc1nc2c3ccccc3ncc2n1CC(C)(C)O`, the pIC50 at Toll-like receptor 7 [1] was 5.12.
`CCNCc1nc2c3ccccc3nc(N)c2n1CC(C)(C)O.O=C(O)C(F)(F)F.O=C(O)C(F)(F)F` had a pIC50 at Toll-like receptor 7 [1] of 4.60. Besides, the IC50 result on Toll-like receptor 7 [2] is on record as “Not Active”.
